Laboratory results taken from ChEMBL document CHEMBL1671659, “In vitro and in vivo properties of dihydrophthalazine antifolates, a novel family of antibacterial drugs” (Antimicrob Agents Chemother, 2009).
pIC50: −log10 of the molar value. ≈ marks a conversion by molar mass, not a printed value. Calls of active or inactive are those of the source. The calls are words filed in the database; no cut-off is given here.

Tests used:
Staphylococcus aureus [1] = test: Antibacterial activity against methicillin, vancomycin, trimethoprim-sensitive Staphylococcus aureus ATCC 29213 harboring dfrB gene; assay type: functional
Staphylococcus aureus [2] = test: Antibacterial activity against vancomycin, trimethoprim-sensitive and methicillin-resistant Staphylococcus aureus ATCC 43300 harboring dfrB gene; assay type: functional
Staphylococcus aureus [3] = test: Antibacterial activity against vancomycin, trimethoprim, methicillin-resistant Staphylococcus aureus VRS1 harboring dfrA and dfrB genes; assay type: functional
[4] = test system: Staphylococcus epidermidis; test: Antibacterial activity against methicillin, vancomycin, trimethoprim-sensitive Staphylococcus epidermidis ATCC 14990 harboring dfrC gene; assay type: functional
[5] = test system: Staphylococcus epidermidis; test: Antibacterial activity against methicillin, vancomycin-sensitive and trimethoprim-resistant Staphylococcus epidermidis BAS000635 harboring dfrC and dfrA genes; assay type: functional
[6] = Inhibition of trimethoprim-sensitive Staphylococcus aureus DfrB type dihydrofolate reductase
Dihydrofolate reductase = Dihydrofolate reductase (Staphylococcus aureus, UniProt P0A017, F99Y); test: Inhibition of trimethoprim-resistant Staphylococcus aureus DfrB type dihydrofolate reductase F98Y mutant
[7] = Inhibition of trimethoprim-resistant Staphylococcus aureus Type S1 dihydrofolate reductase
Mycobacterium avium = test: Antibacterial activity against Mycobacterium avium assessed as inhibition of bacterial growth at <=4 ug/ml; assay type: functional; set-up: scale not given: the % may be the effect or the level left
Enterococcus faecalis [8] = test: Antibacterial activity against Enterococcus faecalis; assay type: functional
Enterococcus faecalis [9] = test: Antibacterial activity against Enterococcus faecalis in presence of 50 ug/ml thymidine; assay type: functional
Enterococcus faecalis [10] = test: Antibacterial activity against Enterococcus faecalis in presence of 250 ug/ml thymidine; assay type: functional
Enterococcus faecium [11] = test: Antibacterial activity against Enterococcus faecium; assay type: functional
Enterococcus faecium [12] = test: Antibacterial activity against Enterococcus faecium in presence of 50 ug/ml thymidine; assay type: functional
Enterococcus faecium [13] = test: Antibacterial activity against Enterococcus faecium in presence of 250 ug/ml thymidine; assay type: functional
Streptococcus pneumoniae [14] = test: Antibacterial activity against Streptococcus pneumoniae
Streptococcus pneumoniae [15] = test: Antibacterial activity against Streptococcus pneumoniae in presence of 50 ug/ml thymidine; assay type: functional
Streptococcus pneumoniae [16] = test: Antibacterial activity against Streptococcus pneumoniae in presence of 250 ug/ml thymidine; assay type: functional
Haemophilus influenzae [17] = test: Antibacterial activity against Haemophilus influenzae; assay type: functional
Haemophilus influenzae [18] = test: Antibacterial activity against Haemophilus influenzae in presence of 50 ug/ml thymidine
Haemophilus influenzae [19] = test: Antibacterial activity against Haemophilus influenzae in presence of 250 ug/ml thymidine; assay type: functional
Enterococcus faecalis [20] = test: Antibacterial activity against vancomycin-sensitive folA, dfrF-negative Enterococcus faecalis harboring A5T, K88N, F102Y mutation in dfrE gene; assay type: functional
Enterococcus faecalis [21] = test: Antibacterial activity against vancomycin-sensitive dfrE, dfrF-positive and folA-negative Enterococcus faecalis; assay type: functional
Enterococcus faecium [22] = test: Antibacterial activity against vancomycin-sensitive dfrE, dfrF-negative and folA-positive Enterococcus faecium; assay type: functional
Enterococcus faecium [23] = test: Antibacterial activity against vancomycin-resistant dfrE, dfrF-negative and folA-positive Enterococcus faecium; assay type: functional
Staphylococcus aureus [24] = test: Antibacterial activity against methicillin-sensitive dfrB-positive abd dfrA, dfrG-negative Staphylococcus aureus; assay type: functional
Staphylococcus aureus [25] = test: Antibacterial activity against methicillin-resistant dfrA within SCCmec-N1, dfrA and dfrG -negative Staphylococcus aureus harboring F98Y mutation in dfrB gene; assay type: functional
Staphylococcus aureus [26] = test: Antibacterial activity against methicillin-resistant dfrB, dfrA-positive and dfrA within SCCmec-N1, dfrG-negative Staphylococcus aureus; assay type: functional
Staphylococcus aureus [27] = test: Antibacterial activity against methicillin-resistant dfrB, dfrG-positive and dfrA-negative Staphylococcus aureus; assay type: functional
[28] = test system: Staphylococcus epidermidis; test: Antibacterial activity against methicillin-sensitive dfrC-positive and dfrA, dfrD-negative Staphylococcus epidermidis; assay type: functional
[29] = test system: Staphylococcus epidermidis; test: Antibacterial activity against methicillin-sensitive dfrA, dfrD-negative Staphylococcus epidermidis harboring F98Y mutation in dfrC gene; assay type: functional
[30] = test system: Staphylococcus epidermidis; test: Antibacterial activity against methicillin-sensitive dfrA-positive and dfrD-negative Staphylococcus epidermidis harboring F98Y mutation in dfrC gene; assay type: functional
[31] = test system: Staphylococcus epidermidis; test: Antibacterial activity against methicillin-sensitive dfrC, dfrA-positive and dfrD-negative Staphylococcus epidermidis; assay type: functional
[32] = test system: Staphylococcus epidermidis; test: Antibacterial activity against methicillin-resistant dfrC, dfrA-positive and dfrA within SCCmec-N1, dfrD-negative Staphylococcus epidermidis; assay type: functional
HeLa = test: Cytotoxicity against human HeLa cells; assay type: cell-based
Mus musculus [33] = test: Hepatotoxicity in NMRI mouse assessed as increase in liver weight at 400 mg/kg administered through oral gavage for 5 days; assay type: toxicity, organism-based; set-up: dose 400 mg/kg, route oral; conditions: in vivo, 120 h
Mus musculus [34] = test: Hepatotoxicity in NMRI mouse assessed as increase in liver weight at 400 mg/kg administered through oral gavage for 10 days; assay type: toxicity, organism-based; set-up: dose 400 mg/kg, route oral; conditions: in vivo, 240 h
[35] = Oral bioavailability in NMRI mouse; assay type: ADME, organism-based; conditions: in vivo
[36] = Cmax in NMRI mouse blood at 25 mg/kg administered through oral gavage measured after 7 hrs; assay type: ADME, organism-based; set-up: dose 25 mg/kg, route oral
[37] = Tmax in NMRI mouse blood at 25 mg/kg administered through oral gavage measured after 7 hrs; assay type: ADME, organism-based; set-up: dose 25 mg/kg, route oral
[38] = AUC (0 to t) in NMRI mouse blood at 25 mg/kg administered through oral gavage after 7 hrs; assay type: ADME, organism-based; set-up: time < 7 hr, dose 25 mg/kg, route oral
Mus musculus [39] = test: Hepatotoxicity in NMRI mouse assessed as inflammatory infiltrates at 400 mg/kg administered through oral gavage for 5 days; assay type: toxicity, organism-based; set-up: dose 400 mg/kg, route oral; conditions: in vivo, 120 h
Mus musculus [40] = test: Hepatotoxicity in NMRI mouse assessed as inflammatory infiltrates at 400 mg/kg administered through oral gavage for 10 days; assay type: toxicity, organism-based; set-up: dose 400 mg/kg, route oral; conditions: in vivo, 240 h
Mus musculus [41] = test: Hepatotoxicity in NMRI mouse assessed as single-cell necrosis at 400 mg/kg administered through oral gavage for 5 days; assay type: toxicity, organism-based; set-up: dose 400 mg/kg, route oral; conditions: in vivo, 120 h
Mus musculus [42] = test: Hepatotoxicity in NMRI mouse assessed as single-cell necrosis at 400 mg/kg administered through oral gavage for 10 days; assay type: toxicity, organism-based; set-up: dose 400 mg/kg, route oral; conditions: in vivo, 240 h
Mus musculus [43] = test: Hepatotoxicity in NMRI mouse assessed as increase in mitosis at 400 mg/kg administered through oral gavage for 10 days; assay type: toxicity, organism-based; set-up: dose 400 mg/kg, route oral; conditions: in vivo, 240 h
Mus musculus [44] = test: Hepatotoxicity in NMRI mouse assessed as increase in mitosis at 400 mg/kg administered through oral gavage for 5 days; assay type: toxicity, organism-based; set-up: dose 400 mg/kg, route oral; conditions: in vivo, 120 h
Staphylococcus aureus [45] = test: Antibacterial activity against trimethoprim-sensitive Staphylococcus aureus ATCC 29213; assay type: functional
Staphylococcus aureus [46] = test: Antibacterial activity against trimethoprim-sensitive Staphylococcus aureus ATCC 29213 infected in NMRI mouse model of septicemia assessed as complete protection from infections at 3.1 mg/kg, iv; assay type: functional, organism-based; set-up: dose 3.1 mg/kg
Staphylococcus aureus [47] = test: Antibacterial activity against trimethoprim-sensitive Staphylococcus aureus ATCC 29213 infected in NMRI mouse model of septicemia assessed as succumbed to infections at 1.6 mg/kg, iv; assay type: functional, organism-based; set-up: dose 1.6 mg/kg
Staphylococcus aureus [48] = test: Antibacterial activity against trimethoprim-sensitive Staphylococcus aureus ATCC 29213 infected in NMRI mouse model of septicemia; assay type: functional
Staphylococcus aureus [49] = test: Antibacterial activity against trimethoprim-resistant Staphylococcus aureus BAS003908; assay type: functional
Staphylococcus aureus [50] = test: Antibacterial activity against trimethoprim-resistant Staphylococcus aureus BAS003908 infected in NMRI mouse model of septicemia; assay type: functional
Mus musculus [51] = test: Toxicity in po dosed NMRI mouse; assay type: organism-based; conditions: in vivo

COc1cc(Cc2cnc(N)nc2N)cc(/C=C/C(=O)N2N=Cc3ccccc3[C@H]2c2cnc(N3CCOCC3)nc2)c1OC
MIC (Staphylococcus aureus [1]): 4 µg/mL (≈ 6.58 µM)
MIC (Staphylococcus aureus [2]): 2 µg/mL (≈ 3.29 µM)
MIC (Staphylococcus aureus [3]): > 8 µg/mL
MIC [4]: 1 µg/mL (≈ 1.65 µM)
MIC [5]: > 8 µg/mL
pIC50 [6]: 7.33
pIC50 (Dihydrofolate reductase): 5.24
pIC50 [7]: 5.59

COc1cc(Cc2cnc(N)nc2N)cc(/C=C/C(=O)N2N=Cc3ccccc3[C@@H]2c2cnc(N(C)C)nc2)c1OC
MIC (Staphylococcus aureus [1]): 0.5 µg/mL (≈ 0.884 µM)
MIC (Staphylococcus aureus [2]): 0.5 µg/mL (≈ 0.884 µM)
MIC (Staphylococcus aureus [3]): 2 µg/mL (≈ 3.54 µM)
MIC [4]: 0.25 µg/mL (≈ 0.442 µM)
MIC [5]: 2 µg/mL (≈ 3.54 µM)
pIC50 [6]: 8.04
pIC50 (Dihydrofolate reductase): 7.39
pIC50 [7]: 7.45

COc1cc(Cc2cnc(N)nc2N)cc(/C=C/C(=O)N2N=Cc3ccccc3[C@H]2c2cnc(N(C)C)nc2)c1OC
MIC (Staphylococcus aureus [1]): 2 µg/mL (≈ 3.54 µM)
MIC (Staphylococcus aureus [2]): 2 µg/mL (≈ 3.54 µM)
MIC (Staphylococcus aureus [3]): > 8 µg/mL
MIC [4]: 0.5 µg/mL (≈ 0.884 µM)
MIC [5]: > 8 µg/mL
pIC50 [6]: 7.42
pIC50 (Dihydrofolate reductase): 5.54
pIC50 [7]: 6.00

COc1cc(Cc2cnc(N)nc2N)cc(/C=C/C(=O)N2N=Cc3ccccc3C2c2cnc(N3CCOCC3)nc2)c1OC (centres undefined)
Activity (Mycobacterium avium): 77%
MIC (Enterococcus faecalis [8]): 0.5 µg/mL (≈ 0.823 µM)
MIC (Enterococcus faecalis [9]): ≤ 0.25 µg/mL
MIC (Enterococcus faecalis [10]): 2 µg/mL
MIC (Enterococcus faecium [11]): 2 µg/mL (≈ 3.29 µM)
MIC (Enterococcus faecium [12]): ≥ 128 µg/mL
MIC (Enterococcus faecium [13]): > 128 µg/mL
MIC (Streptococcus pneumoniae [14]): ≥ 128 µg/mL
MIC (Streptococcus pneumoniae [15]): ≥ 128 µg/mL
MIC (Streptococcus pneumoniae [16]): ≥ 128 µg/mL
MIC (Haemophilus influenzae [17]): > 128 µg/mL
MIC (Haemophilus influenzae [18]): ≥ 128 µg/mL
MIC (Haemophilus influenzae [19]): ≥ 128 µg/mL
MIC (Enterococcus faecalis [20]): 1 µg/mL (≈ 1.65 µM)
MIC (Enterococcus faecalis [21]): > 128 µg/mL
MIC (Enterococcus faecium [22]): ≤ 0.25 µg/mL
MIC (Enterococcus faecium [23]): 2 µg/mL (≈ 3.29 µM)
MIC (Staphylococcus aureus [24]): 0.5 µg/mL (≈ 0.823 µM)
MIC (Staphylococcus aureus [25]): 1 µg/mL (≈ 1.65 µM)
MIC (Staphylococcus aureus [26]): 1 µg/mL (≈ 1.65 µM)
MIC (Staphylococcus aureus [26]; Staphylococcus aureus, read-out: MIC): 0.5 µg/mL (≈ 0.823 µM)
MIC (Staphylococcus aureus [27]): 64 µg/mL (≈ 105 µM)
MIC [28]: < 0.25 µg/mL
MIC [29]: 1 µg/mL (≈ 1.65 µM)
MIC [30]: 1 µg/mL (≈ 1.65 µM)
MIC [31]: 1 µg/mL (≈ 1.65 µM)
MIC [32]: 1 µg/mL (≈ 1.65 µM)
MIC (Staphylococcus aureus [1]): 1 µg/mL (≈ 1.65 µM)
MIC (Staphylococcus aureus [2]): 0.5 µg/mL (≈ 0.823 µM)
MIC (Staphylococcus aureus [3]): 2 µg/mL (≈ 3.29 µM)
MIC [4]: 0.25 µg/mL (≈ 0.411 µM)
MIC [5]: 2 µg/mL (≈ 3.29 µM)
pIC50 [6]: 7.91
pIC50 (Dihydrofolate reductase): 6.91
pIC50 [7]: 6.81
pIC50 (HeLa): 4.92
Activity (Mus musculus [33]): < 10%
Activity (Mus musculus [34]): < 10%
bioavailability [35]: 29%
Cmax [36]: 990 ng/mL
Tmax [37]: 6 h
AUC(0-t) at 7 h [38]: 5590 ng·h/mL
Activity (Mus musculus [39]): < 10%
Activity (Mus musculus [40]): < 10%
Activity (Mus musculus [41]): < 10%
Activity (Mus musculus [42]): < 10%
Activity (Mus musculus [43]): < 10%
Activity (Mus musculus [44]): < 10%
MIC (Staphylococcus aureus [45]): 0.5 µg/mL (≈ 0.823 µM)
Activity (Staphylococcus aureus [46]): Active
Activity (Staphylococcus aureus [47]): inactive
ED50 (Staphylococcus aureus [48]): 1.6 mg/kg
MIC (Staphylococcus aureus [49]): 1 µg/mL (≈ 1.65 µM)
ED50 (Staphylococcus aureus [50]): 1.6 mg/kg
Activity (Mus musculus [51]): 400 mg/kg
